Reference: patent US9969698B2, “Quinoxalinyl-piperazinamide methods of use” (REXAHN PHARMACEUTICALS, INC., priority 2015, dated 2018)
Marks after values point to notes of the source that are not given here.

Tests used:
[1] = tested on: human ovarian tumor xenografts (A-2780); assay: Cisplatin-resistant ovarian cancer xenograft model; format: in vivo, mice; settings: oral
Excerpt: (§1) The efficacy of RX-5902 in human cancer xenograft mouse models is examined. Female nude mice (nu/nu, Harlan or CRL: NU(NCr)-Foxn1^nu, Charles River), 9-10 weeks old, with a body weight (BW) range of 15-30 g on day 1 of the study, are fed ad libitum water (reverse osmosis, 1 ppm C1), and NIH 31 Modified and Irradiated Lab Diet® consisting of 18.0% crude protein, 5.0% crude fat, and 5.0% crude fiber. The mice are housed on irradiated Enrich-o'Cobs™ Laboratory Animal Bedding in static microisolators on a 12-hour light cycle at 20-22° C. (68-72° F.) and 40-60% humidity. The study complies with the recommendations of the Guide for, Care and Use of Laboratory Animals with respect to restraint, husbandry, surgical procedures, feed and fluid regulation, and veterinary care.
Various human tumor cell lines (e.g., HCT116, HT29, H460, H69, Caki-1, CaSki, MiaPaca2, BxPC3 and Colo 205 cells [ATCC, Manassas, Va., USA]) are cultured according to ATCC's instruction. […]
(§2) The cells are harvested during exponential growth and re-suspended with phosphate buffered saline. Each test animal receives a subcutaneous (s.c.) injection of 5×10^6 tumor cells into the right flank and tumor growth is monitored as the average tumor size approaches the target range of 80-300 mm^3. […] Tumors and body weights are measured regularly until the study is terminated.
(§3) Tumors are measured in two dimensions using calipers, and volume is calculated using the formula: […]
Treatment efficacy is determined using data from Day 15. The MTV (n), the median tumor volume for the number of animals, n, on Day 15, is determined for each group. Percent tumor growth inhibition (% TGI) is defined as the difference between the MTV of the designated control group (vehicle administration) and the MTV of the drug-treated group, expressed as a percentage of the MTV of the control group: % TGI=[1−(MTVdrug treated/MTVcontrol)]×100 The data set for TGI analysis includes all animals in a group, except those that die due to treatment-related (TR) or non-treatment-related (NTR) causes. […]
Animals are monitored individually for tumor growth until Day 71. […]

[2] = tested on: human pancreas tumor xenografts (MiaPaca-2); assay: Pancreatic cancer xenograft model; format: in vivo, mice; settings: oral, 5ON/2OFF
Excerpt: as §1, with “The study complies with the recommendations of the Guide for, Care and Use of Laboratory Animals with respect to restraint, husbandry, surgical procedures, feed and fluid regulation, and veterinary care.” left out
as §2, §3
Treatment efficacy is determined using data from Day 15. The MTV (n), the median tumor volume for the number of animals, n, on Day 15, is determined for each group. […]
Animals are monitored individually for tumor growth until Day 71. […] The time to endpoint (TTE) for each mouse is calculated with the following equation: […]

[3] = Solid state characterisation of Form 1; format: physicochemical; settings: crystalline solid
Excerpt: A batch of RX-5902 was characterized by various solid state techniques. The supplied material was a crystalline solid, denoted as Form 1.

p68 RNA helicase = target: T1, p68 RNA helicase (Homo sapiens, UniProt P17844); assay: DARTS target identification (thermolysin protection, Western blot); format: cell-based; settings: MDA-MB-231 cells treated 0.1-10 μM for one hour
T1 construct: made in house
T1 sequence (P17844 whole entry): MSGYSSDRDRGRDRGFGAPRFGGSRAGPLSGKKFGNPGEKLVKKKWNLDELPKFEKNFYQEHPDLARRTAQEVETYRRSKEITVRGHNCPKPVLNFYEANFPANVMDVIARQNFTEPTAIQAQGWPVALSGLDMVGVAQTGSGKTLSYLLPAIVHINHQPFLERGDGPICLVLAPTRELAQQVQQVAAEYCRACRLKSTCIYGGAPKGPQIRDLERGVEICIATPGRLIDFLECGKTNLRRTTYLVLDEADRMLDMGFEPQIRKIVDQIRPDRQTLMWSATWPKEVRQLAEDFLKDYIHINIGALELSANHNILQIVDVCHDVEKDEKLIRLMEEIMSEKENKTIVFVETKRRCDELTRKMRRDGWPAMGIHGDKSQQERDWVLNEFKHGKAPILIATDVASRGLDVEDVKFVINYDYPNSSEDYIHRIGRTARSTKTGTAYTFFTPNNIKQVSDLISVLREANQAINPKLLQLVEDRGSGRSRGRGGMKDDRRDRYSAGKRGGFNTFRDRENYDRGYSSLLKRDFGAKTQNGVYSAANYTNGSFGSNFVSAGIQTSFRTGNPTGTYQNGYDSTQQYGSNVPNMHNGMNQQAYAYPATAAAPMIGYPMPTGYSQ
Method: MDA-MB-231 cells were plated onto 6 well plates and treated with RX-5902 at various concentrations (0, 0.1, 1 and 10 μM) for one hour. Cells were lysed with p-MER buffer containing protease/phosphatase inhibitors on ice. Cell lysates were treated with thermolysin protease (1:1,500 ratio) for 10 min at RT and the reaction was stopped by addition of 0.5 M EDTA solution. The reaction mixtures were separated on a 10% SDS-PAGE visualized by Coomassie staining. After identifying several candidate proteins from mass spectrometry sequencing analysis, the protein which interacted with RX-5902 was confirmed by western blot analysis.
Protein mix or cell lysates were separated by SDS-PAGE and transferred to PVDF membrane. The membrane was blocked by blocking buffer (1×TBST containing 5% BSA) at room temperature for 1 hour. After a brief wash, the membrane was incubated with primary antibody in blocking buffer at 4° C. overnight. […]
Well-established target identification method DARTS assay (Lomenick et al., Proc. Natl. Acad. Sci. USA, 106:21984-21989 (2009)) was used to find target proteins that would interact with RX-5902 in cancer cells. […] To identify this protected protein, the bands along with control were sliced out, and analyzed with LC-MS/MS by ProtTech (Phoenixville, Pa.). […]

Structure (SMILES): COc1cc(OC)cc(N2CCN(C(=O)Nc3nc4cc(F)ccc4nc3OC)CC2)c1 [RX-5902, 4-(3,5-dimethoxyphenyl)-N-(7-fluoro-3-methoxyquinoxalin-2-yl)piperazine-1-carboxamide]
- TGI % ([1]; 160 mg/kg QWK): 43%*
- TGI % ([1]; 320 mg/kg QWK): 43%*
- TGI % ([1]; 600 mg/kg QWK): 75%*
- TGD % ([2]; 50 mg/kg): 83%^
- TGD % ([2]; 70 mg/kg): 339%^
- hygroscopicity [3]: non-hygroscopic
- stability to humidity [3]: stable to exposure to humidity
- protection of ~60 kDa band (p68 RNA helicase) from protease (p68 RNA helicase): protected from the protease cleavage
